Laboratory results: article PMC9295786, “Discovery of potent BET bromodomain 1 stereoselective inhibitors using DNA-encoded chemical library selections” (Proceedings of the National Academy of Sciences of the …, 2022)

Key:
MOLM-13 cells [1] = test: Cell cycle analysis by flow cytometry; format: cell-based; details: 24 h of treatment at the IC50
BRD4-BD2 = biological target: T1, BRD4-BD2 (Homo sapiens, UniProt O60885); test: AlphaScreen competition assay with biotinylated JQ1; format: binding; details: read-out: BRD4-BD2 IC50
T1 construct: two similar tandem bromodomains (BD1 and BD2); made in house; host or cells: bacteria (pET15b or pET28b vector)

MOLM-13 cells [2] = test: Cell viability by CellTiterGlo; format: cell-based; details: Homo sapiens, MOLM-13; 72 h of treatment, CellTiterGlo, normalized to DMSO; read-out: Viability IC50 MOLM-13
[3] = tested on: MYC expression in MOLM-13 cells; test: MYC expression by RT-qPCR; format: cell-based; details: 8 h of treatment
[4] = tested on: MYC expression in MV4;11 cells; test: MYC expression by RT-qPCR; format: cell-based; details: 8 h of treatment
BRD3-BD2 = biological target: T2, BRD3-BD2 (Homo sapiens, UniProt Q15059); test: BromoKdELECT assay; format: binding
T2 construct: two similar tandem bromodomains (BD1 and BD2); purchased Eurofins DiscoverX (Fremont, CA); host or cells: E. coli host derived from the BL21 strain, T7 phage

BRD2-BD2 = biological target: T3, BRD2-BD2 (Homo sapiens, UniProt P25440); test: BromoKdELECT assay; format: binding
T3 construct: two similar tandem bromodomains (BD1 and BD2); purchased Eurofins DiscoverX (Fremont, CA); host or cells: E. coli host derived from the BL21 strain, T7 phage

BRD4-BD1 [5] = biological target: T4, BRD4-BD1 (Homo sapiens, UniProt O60885); test: BromoKdELECT assay; format: binding; design: the bromodomain 1 (BD1) of BRD4; purchased Eurofins DiscoverX (Fremont, CA); host or cells: E. coli host derived from the BL21 strain, T7 phage
MV4;11 cells [6] = test: Apoptosis detection (Annexin V) by flow cytometry; format: cell-based; details: 72 h of treatment
MV4;11 cells [7] = test: Cell cycle analysis by flow cytometry; format: cell-based; details: 24 h of treatment at the IC50
MOLM-13 cells [8] = test: Apoptosis detection (Annexin V) by flow cytometry; format: cell-based; details: 72 h of treatment
BRDT-BD2 = biological target: T5, BRDT-BD2 (Homo sapiens, UniProt Q58F21); test: AlphaScreen competition assay with biotinylated JQ1; format: binding; details: read-out: BRDT-BD2 IC50
T5 construct: two similar tandem bromodomains (BD1 and BD2); made in house; host or cells: bacteria (pET15b or pET28b vector)

BRD4-BD1 [9] = biological target: T4, BRD4-BD1; test: as above; format: binding; design: the bromodomain 1 (BD1) of BRD4; made in house; host or cells: bacteria (pET15b or pET28b vector)
Kasumi1 cells = test: Cell viability by CellTiterGlo; format: cell-based; details: Homo sapiens, Kasumi 1; 72 h of treatment, CellTiterGlo, normalized to DMSO; read-out: Viability IC50 Kasumi1
MV4;11 cells [10] = test: Cell viability by CellTiterGlo; format: cell-based; details: Homo sapiens, MV4-11
THP1 cells = test: Cell viability by CellTiterGlo; format: cell-based; details: Homo sapiens, THP-1; 72 h of treatment, CellTiterGlo, normalized to DMSO; read-out: Viability IC50 THP1
BRDT-BD1 [11] = biological target: T6, BRDT-BD1 (Homo sapiens, UniProt Q58F21); test: AlphaScreen competition assay with biotinylated JQ1; format: binding; design: the first bromodomain of BRDT (BRDT-BD1); made in house; host or cells: bacteria (pET15b or pET28b vector)
BRD3-BD1 = biological target: T7, BRD3-BD1 (Homo sapiens, UniProt Q15059); test: BromoKdELECT assay; format: binding
T7 construct: two similar tandem bromodomains (BD1 and BD2); purchased Eurofins DiscoverX (Fremont, CA); host or cells: E. coli host derived from the BL21 strain, T7 phage

[12] = Metabolic stability assay in liver microsomes (MLM); format: in vitro ADME; details: mouse liver microsomes 0.5 mg protein/mL, compound 2.0 μM, NADPH 1.0 mM; read-out: MLM t1/2 (half-life)
BRD2-BD1 = biological target: T8, BRD2-BD1 (Homo sapiens, UniProt P25440); test: BromoKdELECT assay; format: binding
T8 construct: two similar tandem bromodomains (BD1 and BD2); purchased Eurofins DiscoverX (Fremont, CA); host or cells: E. coli host derived from the BL21 strain, T7 phage

[13] = Metabolic stability assay in liver microsomes (HLM); format: in vitro ADME; details: human liver microsomes 0.5 mg protein/mL, compound 2.0 μM, NADPH 1.0 mM; read-out: HLM t1/2 (half-life)
BRDT-BD1 [14] = biological target: T6, BRDT-BD1; test: BromoKdELECT assay; format: binding; design: the first bromodomain of BRDT (BRDT-BD1); purchased Eurofins DiscoverX (Fremont, CA); host or cells: E. coli host derived from the BL21 strain, T7 phage

T7 sequence (Q15059 34-140 limits assumed): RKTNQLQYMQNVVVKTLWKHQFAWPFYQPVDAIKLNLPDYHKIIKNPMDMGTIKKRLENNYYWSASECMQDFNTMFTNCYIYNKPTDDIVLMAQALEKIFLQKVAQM
T8 sequence (P25440 74-180 limits assumed): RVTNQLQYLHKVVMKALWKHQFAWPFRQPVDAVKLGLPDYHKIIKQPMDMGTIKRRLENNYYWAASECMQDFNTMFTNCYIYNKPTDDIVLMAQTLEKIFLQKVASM
T2 sequence (Q15059 306-415 limits assumed): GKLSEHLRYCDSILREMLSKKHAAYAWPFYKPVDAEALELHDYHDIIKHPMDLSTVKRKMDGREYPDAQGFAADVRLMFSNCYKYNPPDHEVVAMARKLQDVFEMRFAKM
T3 sequence (P25440 344-453 limits assumed): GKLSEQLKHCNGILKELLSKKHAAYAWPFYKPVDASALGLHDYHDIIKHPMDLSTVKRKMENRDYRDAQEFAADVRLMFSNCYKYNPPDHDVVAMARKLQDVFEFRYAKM

IC50 (BRD4-BD2): 12900 nM | Kd (BRD3-BD2): 770 nM | Kd (BRD2-BD2): 110 nM | Kd (BRD4-BD1 [5]): 0.29 nM | IC50 (BRD4-BD1 [5]; read-out: IC50 against BRD4-BD1): 0.29 nM | IC50 (BRDT-BD2): 10400 nM | BRD4-BD1 vs. BRD4-BD2 fold (BRD4-BD1 selectivity) (BRD4-BD1 [9]; ratio of AlphaScreen IC50 values, NE = not efficient): 3909 fold | IC50 (BRD4-BD1 [9]; read-out: BRD4-BD1 IC50): 3.3 nM | EC50 (MV4;11 cells [10]; Table S6, NE = not efficient, read-out: MV4-11 EC50 (viability)): 8 nM | IC50 (BRDT-BD1 [11]): 2.1 nM | fold more potent than the S-enantiomer (CDD-786) in inhibiting BRDT-BD1 (BRDT-BD1 [11]): 50 fold | fold more potent than (+)-JQ1 for BRDT-BD1 (BRDT-BD1 [11]; AlphaScreen): 22 fold | fold more selective than (+)-JQ1 for BRDT-BD1 (BRDT-BD1 [11]; AlphaScreen): ~2,200 fold | Kd (BRD3-BD1; BromoKdELECT): 0.13 nM | IC50 (BRD3-BD1; BromoKdELECT, read-out: IC50 against BRD3-BD1): 0.13 nM | BRD3-BD1 selectivity (BRD3-BD1; over BRD3-BD2, BromoKdELECT Kd ratio): 5,920 fold | half-life at 2 μM [12]: 13 min | Kd (BRD2-BD1; BromoKdELECT): 0.26 nM | IC50 (BRD2-BD1; BromoKdELECT, read-out: IC50 against BRD2-BDT1): 0.26 nM | BRD2-BD1 selectivity (BRD2-BD1; over BRD2-BD2, BromoKdELECT Kd ratio): 420 fold | half-life at 2 μM [13]: 33 min | Kd (BRDT-BD1 [14]): 0.22 nM | IC50 (BRDT-BD1 [14]; read-out: IC50 against BRDT-BD1): 0.22 nM
Compound: CNC(=O)[C@@H](CC1CCN(C(=O)Cc2ccc3[nH]c(=O)cc(C)c3c2)CC1)NC(=O)c1ccc(-c2ccc(C)cc2C)cn1 [CDD-787]
Effect on the cell cycle, MOLM-13 (MOLM-13 cells [1]): G1 arrest | IC50 (MOLM-13 cells [2]): 16 nM | MYC expression, MOLM-13 [3]: suppressed | MYC expression, MV4;11 [4]: suppressed | Induction of apoptosis (Annexin V+ cells), MV4;11 (MV4;11 cells [6]): apoptosis | Effect on the cell cycle, MV4;11 (MV4;11 cells [7]): G1 arrest | Induction of apoptosis (Annexin V+ cells), MOLM-13 (MOLM-13 cells [8]): apoptosis | IC50 (Kasumi1 cells): 8.4 nM | IC50 (MV4;11 cells [10]; 72 h of treatment, CellTiterGlo, normalized to DMSO, read-out: Viability IC50 MV4;11): 8.3 nM | IC50 (THP1 cells): 11.8 nM
